PubChem BioAssay (NCI)
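Tested at 5 concentrations; 48 h exposure; 96-well plates; endpoints linearly interpolated, else capped at highest concentration. GI50: concentration for 50% inhibition of growth. TGI: total growth inhibition.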

Experiments:
Experiment in all cases: NCI tumour cell line growth inhibition, 48 h
[1] = tested on: HOP-92 NSCLC
[2] = tested on: DU-145 prostate
[3] = tested on: OVCAR-5 ovarian
[4] = tested on: K-562 leukemia
[5] = tested on: NCI-H522 lung
[6] = tested on: SN12C renal
[7] = tested on: MALME-3M melanoma
[8] = tested on: NCI-H226 lung
[9] = tested on: MDA-MB-435
[10] = tested on: OVCAR-4 ovarian
[11] = tested on: IGROV1 ovarian
[12] = tested on: SF-268 CNS
[13] = tested on: NCI-H23 lung
[14] = tested on: COLO 205 colon
[15] = tested on: NCI/ADR-RES ovarian
[16] = tested on: SF-295 CNS
[17] = tested on: OVCAR-8 ovarian
[18] = tested on: A549 NSCLC
[19] = tested on: A498 renal
[20] = tested on: SK-MEL-2 melanoma
[21] = tested on: UACC-62 melanoma
[22] = tested on: UACC-257 melanoma
[23] = tested on: TK-10 renal
[24] = tested on: HCT-116 colon
[25] = tested on: SW-620 colon
[26] = tested on: SK-MEL-5 melanoma
[27] = tested on: SNB-19 CNS
[28] = tested on: MOLT-4 leukemia
[29] = tested on: SNB-75 CNS
[30] = tested on: MCF7 breast
[31] = tested on: CAKI-1 renal
[32] = tested on: CCRF-CEM leukemia
[33] = tested on: SF-539 CNS
[34] = tested on: OVCAR-3 ovarian
[35] = tested on: HL-60(TB) leukemia
[36] = tested on: HS 578T breast
[37] = tested on: SR leukemia
[38] = tested on: KM12 colon
[39] = tested on: U251 CNS
[40] = tested on: MDA-MB-231 breast
[41] = tested on: PC-3 prostate
[42] = tested on: UO-31 renal
[43] = tested on: HCC-2998 colon
[44] = tested on: HT29 colon
[45] = tested on: BT-549 breast
[46] = tested on: T-47D breast
[47] = tested on: LOX IMVI melanoma
[48] = tested on: ACHN renal
[49] = tested on: SK-OV-3 ovarian
[50] = tested on: 786-0 renal
[51] = tested on: NCI-H460 lung
[52] = tested on: HCT-15 colon
[53] = tested on: SK-MEL-28 melanoma
[54] = tested on: M14 melanoma
[55] = tested on: HOP-62 NSCLC
[56] = tested on: RPMI-8226 leukemia

## Cc1cc(Nc2cccc(F)c2)nc(NCc2ccccc2)n1
[1]
  GI50: 1.81 µM
  TGI: 11 µM
[2]
  GI50: 11.3 µM
  TGI: 23.9 µM
[3]
  GI50: 12.4 µM
  TGI: 29.9 µM
[4]
  GI50: 2.89 µM
  TGI: 12.9 µM
[5]
  GI50: 8.45 µM
  TGI: 24.7 µM
[6]
  GI50: 6.12 µM
  TGI: 23 µM
[7]
  GI50: 3.8 µM
  TGI: 17.7 µM
[8]
  GI50: 11.8 µM
  TGI: 35.2 µM
[9]
  GI50: 5.72 µM
  TGI: 20 µM
[10]
  GI50: 4.42 µM
  TGI: 37.6 µM
[11]
  GI50: 5.44 µM
  TGI: 24.6 µM
[12]
  GI50: 11.3 µM
  TGI: 28.6 µM
[13]
  GI50: 4.96 µM
  TGI: 21.9 µM
[14]
  GI50: 1.73 µM
  TGI: 3.31 µM
[15]
  GI50: 6.38 µM
  TGI: 38 µM
[16]
  GI50: 6.57 µM
  TGI: 27.1 µM
[17]
  GI50: 3.9 µM
  TGI: 18.2 µM
[18]
  GI50: 6.44 µM
  TGI: 22.8 µM
[19]
  GI50: 2.75 µM
  TGI: 10.7 µM
[20]
  GI50: 11 µM
  TGI: 25.4 µM
[21]
  GI50: 5.61 µM
  TGI: 20.2 µM
[22]
  GI50: 3.95 µM
  TGI: 15.5 µM
[23]
  GI50: 8.29 µM
  TGI: 21.4 µM
[24]
  GI50: 3.34 µM
  TGI: 18.2 µM
[25]
  GI50: 6.62 µM
  TGI: 23.7 µM
[26]
  GI50: 2.73 µM
  TGI: 10.1 µM
[27]
  GI50: 11.1 µM
  TGI: 26.8 µM
[28]
  GI50: 4.89 µM
  TGI: 19.8 µM
[29]
  GI50: 0.799 µM
  TGI: 13 µM
[30]
  GI50: 3.14 µM
  TGI: 15.7 µM
[31]
  GI50: 3.94 µM
  TGI: 17.8 µM
[32]
  GI50: 4.75 µM
  TGI: 22.1 µM
[33]
  GI50: 10.8 µM
  TGI: 24.7 µM
[34]
  GI50: 8.65 µM
  TGI: 21.7 µM
[35]
  GI50: 3.91 µM
  TGI: 17.2 µM
[36]
  GI50: 7.26 µM
  TGI: 32.7 µM
[37]
  GI50: 3.28 µM
  TGI: 10.1 µM
[38]
  GI50: 5.46 µM
  TGI: 19.7 µM
[39]
  GI50: 3.32 µM
  TGI: 8.34 µM
[40]
  GI50: 3.28 µM
  TGI: 14.1 µM
[41]
  GI50: 4.34 µM
  TGI: 18.7 µM
[42]
  GI50: 3.26 µM
  TGI: 19.3 µM
[43]
  GI50: 2 µM
  TGI: 4.19 µM
[44]
  GI50: 3.7 µM
  TGI: 13.4 µM
[45]
  GI50: 7.45 µM
  TGI: 23.2 µM
[46]
  GI50: 3.71 µM
  TGI: 18.5 µM
[47]
  GI50: 7.12 µM
  TGI: 28.7 µM
[48]
  GI50: 7.76 µM
  TGI: 26.1 µM
[49]
  GI50: 10.6 µM
  TGI: 22.5 µM
[50]
  GI50: 6.62 µM
  TGI: 22.1 µM
[51]
  GI50: 3.84 µM
  TGI: 15.8 µM
[52]
  GI50: 4.98 µM
  TGI: 24.6 µM
[53]
  GI50: 7.21 µM
  TGI: 20.6 µM
[54]
  GI50: 13.3 µM
  TGI: 30.8 µM
[55]
  GI50: 10.2 µM
  TGI: 23.4 µM
[56]
  GI50: 2.03 µM
  TGI: 7.97 µM
